Literature values in US11123368B2, “Immunosuppressive blood cells and methods of producing the same” (Universitatsklinikum Heidelberg, priority 2008, dated 2021).

Test system: multiple sclerosis
Settings: clinical trials

Substance: glatiramer acetate
- relapse rate of MS: significantly reduced
- progression of disability (MS): slowed progression of disability
